Molecular target: T1, rat liver 11β HSD (Rattus norvegicus, UniProt P16232)
T1 construct: for the 11β HSDs isolated from rat liver; from tissue; host or cells: rat liver
Test: rat liver 11β HSD oxidative activity, corticosterone utilization (Lineweaver-Burk kinetics)
Format: biochemical
Conditions: for inhibition of the enzyme: purified rat liver 11β HSD, 1,2,6,7-3H-corticosterone; for Ki: purified rat liver 11β HSD, oxidative activity, NADP+, 1,2,6,7-3H-corticosterone, with regard to the glucocorticoid substrate, read-out: Kis; for mode of inhibition: with regard to the glucocorticoid substrate (corticosterone), Lineweaver-Burk plot, rat liver 11β HSD oxidative activity
Method: Computational analyses were performed using the latest version of MacSpartan Plus and MSI InsightII. Experimental analysis employed the rat enzyme as described (Monder et al., BBA […] (1991) and references therein). Kinetic data were analyzed in Excel and plotted in CricketGraph.
The structural similarity between GCs like cortisol and the monoterpenes with the conformation of neomenthol (FIG. 1) was confirmed by the computational analysis of their steric and electronic similarities, as summarized in FIGS. 2 and 3. Only neomenthol precisely mimicked the region of GCs around C11 that contains the oxygen atom subjected to the redox reactions mediated by the 11β HSDs. Consequently, only neomenthol should bind to such an enzyme like its physiological substrate, competing with said substrate for the active site of said enzyme. This computation-based prediction was confirmed experimentally, as shown in FIGS. 4 and 5 for the 11β HSDs isolated from rat liver. The purified rat liver 11β HSD, when used in vitro, utilizes NADP+ and oxidizes cortisol and corticosterone in an ordered sequential bireactant mechanism (Monder et al., Biochim. Biophys. Acta 1115:23-29 (1991) and references therein). […] More importantly, the results identified the conformation of neomenthol as a lead for the rational optimization of 11β HSD inhibitors, applicable to both the in vivo oxidizing activity of 11β HSD2 and the in vivo reducing activity of 11β HSD1, as shown in FIG. 6. Using the same computational algorithms that correctly predicted the competitive mode of inhibitory activity for neomenthol, and the lack thereof for isomenthol, molecules were assembled in silico and evaluated for their computed physicochemical characteristics relevant for the desired inhibition of 11β HSD activity. Originating from the lead compounds (FIG. 6), the computational analysis converged on several optimized structures that contained combinations of physicochemical and steric elements prerequisite for 11β HSD inhibition. These structures are identified in FIGS. 7-10. FIG. 7 details for neomenthol the findings obtained with this approach. FIG. 8 details the findings for a representative compound in which, among other modifications, a structure equivalent to the B ring of cortisol has been deleted. FIG. 9 details the findings for a representative compound in which, among other modifications, a ring has been added to the structure equivalent to the D ring of cortisol. FIG. 10 details the findings for a representative compound in which, among other modifications, a structure equivalent to the D ring of cortisol has been deleted. As originally proposed for neomenthol (FIG. 11), these structures are sufficiently isosteric and isoelectronic with cortisol to displace it from its plasma binding proteins, in this way increasing the bioavailable, free cortisol in a living system, e.g. after topical administration to skin only in skin blood vessels.

T1 sequence (P16232 whole entry): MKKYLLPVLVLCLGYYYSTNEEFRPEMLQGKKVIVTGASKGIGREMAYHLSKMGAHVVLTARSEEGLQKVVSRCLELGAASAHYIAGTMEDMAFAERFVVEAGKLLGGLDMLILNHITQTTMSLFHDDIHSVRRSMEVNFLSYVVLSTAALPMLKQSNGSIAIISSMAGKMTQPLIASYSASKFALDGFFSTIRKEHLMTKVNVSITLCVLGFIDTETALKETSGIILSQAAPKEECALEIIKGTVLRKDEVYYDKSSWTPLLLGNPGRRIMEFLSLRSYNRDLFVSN

| SMILES | inhibition of the enzyme | Ki | mode of inhibition |
| --- | --- | --- | --- |
| CC(C)[C@H]1CC[C@@H](C)C[C@@H]1O [isomenthol, (1S, 2R, 5R)-isomenthol] | inhibited the enzyme | 71 µM | non-competitive |
| CC(C)[C@@H]1CC[C@@H](C)C[C@@H]1O [neomenthol, (1S, 2S, 5R)-neomenthol] | inhibited the enzyme | 35 µM | competitive |

— US20040138258A1, “Inhibitors of 11beta-hydroxysteroid dehydrogenase and uses therefor” (priority 2002, published 2004)
